Data on four compounds can be found in ChEMBL document CHEMBL1201862, “PubChem BioAssay data set” (2004).

By IC50 is commonly meant the concentration at which inhibition is half-maximal. The EC50 is the concentration that produces a half-maximal response. By CC50 is commonly meant the concentration at which the toxic effect on the cells reaches its halfway point. One may read the AC50 as the midpoint of the concentration-response curve, whichever way the signal moves.

Active and inactive are the calls of the source. Where only a bound is given, the exact number is not on record here.

The target in assay [1] is Dual specificity protein phosphatase 3 (Homo sapiens, UniProt P51452). The assay is described as follows: SAR VHR1 Fluorescent Assay for In Vitro dose response studies Set 2. [Related pubchem assays (depositor defined):AID1654, AID1661, AID1878]. Type of assay: functional.
Assay [2] deals with T1, Tyrosine-protein phosphatase non-receptor type 7 (Homo sapiens, UniProt P35236).
T1 sequence (P35236 whole entry): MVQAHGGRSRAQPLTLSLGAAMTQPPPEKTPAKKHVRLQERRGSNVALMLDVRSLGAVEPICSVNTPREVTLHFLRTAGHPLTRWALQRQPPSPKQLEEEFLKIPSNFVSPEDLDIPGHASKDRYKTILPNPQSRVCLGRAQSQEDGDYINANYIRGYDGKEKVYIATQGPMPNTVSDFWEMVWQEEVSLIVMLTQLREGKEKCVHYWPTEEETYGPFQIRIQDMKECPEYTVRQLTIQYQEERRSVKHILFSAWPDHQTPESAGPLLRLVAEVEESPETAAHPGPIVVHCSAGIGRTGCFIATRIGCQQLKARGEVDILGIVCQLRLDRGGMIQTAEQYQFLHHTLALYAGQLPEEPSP
As to the kind of experiment: redox-active compounds inhibiting HePTP phosphatase – biochemical, fluorescence, mechanism study (AID 2068). Type of assay: functional.

Assay [3] deals with T2, Dual specificity protein phosphatase 6 (Rattus norvegicus, UniProt Q64346).
T2 sequence (Q64346 whole entry): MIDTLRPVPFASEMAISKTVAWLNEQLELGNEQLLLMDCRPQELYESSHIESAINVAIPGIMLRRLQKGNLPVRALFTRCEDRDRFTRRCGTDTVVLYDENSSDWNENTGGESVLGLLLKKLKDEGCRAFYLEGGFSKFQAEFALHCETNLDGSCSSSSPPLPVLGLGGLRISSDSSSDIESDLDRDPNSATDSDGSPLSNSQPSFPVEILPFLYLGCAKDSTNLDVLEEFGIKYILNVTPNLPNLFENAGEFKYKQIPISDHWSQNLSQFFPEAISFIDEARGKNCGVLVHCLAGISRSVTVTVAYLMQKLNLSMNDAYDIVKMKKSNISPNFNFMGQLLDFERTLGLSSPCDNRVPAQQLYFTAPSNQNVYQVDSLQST
Type of assay: functional.

In assay [4] the target is T1, Tyrosine-protein phosphatase non-receptor type 7. The assay is described as follows: inhibition of hematopoietic tyrosine phosphatase HePTP – biochemical, set 2, SAR follow-up (AID 449736). It is filed as functional.
In assay [5] the target is T3, Tyrosine-protein phosphatase non-receptor type 22 (Homo sapiens, UniProt Q9Y2R2).
T3 sequence (Q9Y2R2 whole entry): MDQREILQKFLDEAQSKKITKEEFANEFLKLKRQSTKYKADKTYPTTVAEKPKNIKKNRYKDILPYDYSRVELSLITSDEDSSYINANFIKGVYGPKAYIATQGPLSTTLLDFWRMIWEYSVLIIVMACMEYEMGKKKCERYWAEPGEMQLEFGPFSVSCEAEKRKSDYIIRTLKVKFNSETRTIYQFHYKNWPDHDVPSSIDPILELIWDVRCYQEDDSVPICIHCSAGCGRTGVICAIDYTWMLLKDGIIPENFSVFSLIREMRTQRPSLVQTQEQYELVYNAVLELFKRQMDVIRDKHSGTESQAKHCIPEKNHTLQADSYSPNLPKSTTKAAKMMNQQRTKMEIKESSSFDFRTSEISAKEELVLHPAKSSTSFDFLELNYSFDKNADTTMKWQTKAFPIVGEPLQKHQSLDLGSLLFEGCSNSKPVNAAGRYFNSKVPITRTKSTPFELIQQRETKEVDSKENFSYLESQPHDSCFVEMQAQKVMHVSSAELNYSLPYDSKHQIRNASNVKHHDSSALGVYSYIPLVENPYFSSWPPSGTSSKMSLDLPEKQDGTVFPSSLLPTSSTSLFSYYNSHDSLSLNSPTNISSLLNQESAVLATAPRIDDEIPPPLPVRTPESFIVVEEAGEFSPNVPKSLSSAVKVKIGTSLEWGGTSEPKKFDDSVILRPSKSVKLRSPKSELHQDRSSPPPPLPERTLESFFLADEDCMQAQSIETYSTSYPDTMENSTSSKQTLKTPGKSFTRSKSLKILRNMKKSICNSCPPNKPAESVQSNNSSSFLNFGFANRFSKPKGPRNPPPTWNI
The assay is described as follows: SAR LYP1 Fluorescent Assay using OMFP substrate for In Vitro dose response studies - Set 3. [Related pubchem assays (depositor defined):AID1779, AID1784, AID2140, AID2686]. It is filed as functional.

In assay [6] the target is T3, Tyrosine-protein phosphatase non-receptor type 22. The assay is described as follows: inhibition of lymphoid tyrosine phosphatase LYP – biochemical, pCAP fluorogenic substrate, fluorescence, set 3, SAR follow-up (AID 449727). It is filed as functional.
For assay [7], the target named is Tyrosine-protein phosphatase non-receptor type 12 (Homo sapiens, UniProt Q05209). The assay is described as follows: SAR Selectivity Analysis of small molecule inhibitors of PEST using pCAP in a fluorescence assay. [Related pubchem assays (depositor defined):AID1779, AID1784, AID2135]. It is filed as functional.
In assay [8] the target is T4, Cannabinoid receptor 1 (Homo sapiens, UniProt P21554). As to the kind of experiment: SAR analysis of antagonists of the Cannabinoid Receptor 1 using an Image-Based Assay - Set 3. [Related pubchem assays (depositor defined):AID1961, AID1965]. Type of assay: functional.
For assay [9], the target named is G-protein coupled receptor 55 (Homo sapiens, UniProt Q9Y2T6). As to the kind of experiment: SAR analysis of selective Agonists of GPR55 using an Image-Based Assay - Set 2. [Related pubchem assays (depositor defined):AID1961, AID1965]. It is filed as functional.
The target of assay [10] is T5, G-protein coupled receptor 35 (Homo sapiens, UniProt Q9HC97). The assay is described as follows: SAR analysis of Agonists of the GPR35 Receptor using an Image-Based Assay - Set 3. [Related pubchem assays (depositor defined):AID1961, AID1965]. Type of assay: functional.
Assay [11] deals with T5, G-protein coupled receptor 35. As to the kind of experiment: SAR analysis of Antagonists of the GPR35 Receptor using an Image-Based Assay - Set 4. [Related pubchem assays (depositor defined):[…]]. It is filed as functional.
For assay [12], the target named is T4, Cannabinoid receptor 1. The assay is described as follows: SAR analysis of agonists of the Cannabinoid Receptor 1 using an Image-Based Assay - Set 3. [Related pubchem assays (depositor defined):AID1961, AID1965]. It is filed as functional.
Assay [13] has as its target T6, Cannabinoid receptor 2 (Homo sapiens, UniProt P34972). The assay is described as follows: SAR analysis of antagonists of the Cannabinoid Receptor 2 using an Image-Based Assay - Set 2. [Related pubchem assays (depositor defined):AID1961, AID1965]. Type of assay: functional.
In assay [14] the target is T6, Cannabinoid receptor 2. The assay is described as follows: SAR analysis of agonists of the Cannabinoid Receptor 2 using an Image-Based Assay - Set 2. [Related pubchem assays (depositor defined):AID1961, AID1965]. Type of assay: functional.
In a further assay the target is Mucolipin-3 (Homo sapiens, UniProt Q8TDD5). The assay is described as follows: Fluorescence counterscreen assay for […] agonists: dose response cell-based high-throughput screening assay to identify agonists of the transient receptor potential channel ML3 (TRPML3). [Related pubchem assays: 1424, 1448 ]. It is filed as functional. In general terms: The purpose of a counterscreen is to sort out artefacts and off-target activity.

Assay [15] relates to Vero. As to the kind of experiment: cells. It is filed as functional, cell-based. Conditions: Chlorocebus sabaeus.
Assay [16] concerns the target Luciferin 4-monooxygenase (Photinus pyralis, UniProt P08659). As to the kind of experiment: inhibition of purified Photinus pyralis luciferase – biochemical, luminescence, dose response (AID 1891).
Assay [17] is described as follows: Luminescence Cell-Based Dose Confirmation HTS to Identify Inhibitors of Platelet Dense Granule Release. [Related pubchem assays: 1663 (Primary HTS), 1678 (Summary of Project)]. It is filed as functional.
In a further assay the target is Ion channel NompC (Danio rerio, UniProt Q7T1G6). As to the kind of experiment: Dose response cell-based high-throughput screening assay for agonists of the transient receptor potential channel N1 (TRPN1). [Related pubchem assays (depositor defined):AID1424, AID1448]. Type of assay: functional.
Assay [18] in a line: NIH3T3 cell viability loss – ATP luminescence, mouse fibroblasts, counter-screen, dose response (AID 2010).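 Also: cells exposed to compound for about 90 hours before reading.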 Type of assay: functional, cell-based.
For assay [19], the system named is Vero. As to the kind of experiment: cells. Type of assay: functional. The conditions noted are these: Chlorocebus sabaeus.
Assay [20] is described as follows: Trypanosoma cruzi growth suppression in host cells – NIH3T3 host cells, beta-gal luminescence, confirmation (AID 2044).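 Also: intracellular parasites grown in NIH/3T3 mouse fibroblasts as host cells; luminescent beta-galactosidase reporter signal from transgenic T. cruzi replicating inside host cells; inhibitors lower the luminescence signal.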 It is filed as functional, cell-based.
In assay [21] the target is T7, Short transient receptor potential channel 4 (Mus musculus, UniProt Q9QUQ5).
T7 sequence (Q9QUQ5 whole entry): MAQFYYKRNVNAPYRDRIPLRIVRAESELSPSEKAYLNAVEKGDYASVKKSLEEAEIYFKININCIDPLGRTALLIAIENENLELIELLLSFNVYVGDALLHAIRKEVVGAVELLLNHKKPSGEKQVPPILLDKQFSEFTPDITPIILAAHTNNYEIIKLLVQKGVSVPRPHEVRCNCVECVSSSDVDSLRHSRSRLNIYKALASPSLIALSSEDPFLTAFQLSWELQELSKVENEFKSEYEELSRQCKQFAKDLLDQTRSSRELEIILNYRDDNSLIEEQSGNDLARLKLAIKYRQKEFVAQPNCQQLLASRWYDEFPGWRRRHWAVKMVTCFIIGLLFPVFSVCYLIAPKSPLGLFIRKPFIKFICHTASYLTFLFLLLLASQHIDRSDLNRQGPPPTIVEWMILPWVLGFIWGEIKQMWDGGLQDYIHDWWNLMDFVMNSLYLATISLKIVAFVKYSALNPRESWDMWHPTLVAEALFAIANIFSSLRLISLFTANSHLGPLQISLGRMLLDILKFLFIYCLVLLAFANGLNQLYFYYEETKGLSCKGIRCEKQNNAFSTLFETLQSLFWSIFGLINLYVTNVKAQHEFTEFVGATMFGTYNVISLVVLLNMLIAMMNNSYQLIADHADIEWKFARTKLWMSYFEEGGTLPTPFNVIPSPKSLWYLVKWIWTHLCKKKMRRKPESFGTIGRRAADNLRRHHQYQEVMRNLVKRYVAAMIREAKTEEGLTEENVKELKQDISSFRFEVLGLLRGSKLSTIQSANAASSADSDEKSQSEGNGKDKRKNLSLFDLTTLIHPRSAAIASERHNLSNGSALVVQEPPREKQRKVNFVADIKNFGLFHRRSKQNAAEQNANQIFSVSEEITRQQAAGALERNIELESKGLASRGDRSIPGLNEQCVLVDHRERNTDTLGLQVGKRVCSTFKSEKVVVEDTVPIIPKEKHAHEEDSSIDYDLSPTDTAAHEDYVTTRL
As to the kind of experiment: calcium entry via TRPC4 opening agents – cell-based, HEK293 TRPC4/mu-opioid, Fluo-4 calcium, dose response (AID 434937). It is filed as functional.

The target of another assay is X-box-binding protein 1 (Homo sapiens, UniProt P17861). Type of assay: functional, Cricetulus griseus.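 Also: confirmatory dose-response counter-screen serving a CHOP assay.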
For assay [22], the target named is Transitional endoplasmic reticulum ATPase (Homo sapiens, UniProt P55072). The assay is described as follows: p97 ATPase inhibitors, dose response, biochemical (AID 1534).
Assay [23] addresses Transitional endoplasmic reticulum ATPase (Homo sapiens, UniProt P55072, C522A). The assay is described as follows: C522A mutant p97 ATPase inhibitors, dose response, counter-screen for p97 inhibitor project, biochemical, luminescence (AID 1544).
The target of assay [24] is DNA damage-inducible transcript 3 protein (Mus musculus, UniProt P35639). Type of assay: functional, Cricetulus griseus.
Assay [25] in a line: Luminescence Cell-Based Dose Retest to Confirm Inhibitors of Cancer Stem Cells. [Related pubchem assays (depositor defined):AID2717, AID2721]. It is filed as functional. Conditions: Homo sapiens.
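For AC50 in this document: cells exposed to compound for roughly 70 hours or longer before luminescence read.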

T4 sequence (P21554 whole entry): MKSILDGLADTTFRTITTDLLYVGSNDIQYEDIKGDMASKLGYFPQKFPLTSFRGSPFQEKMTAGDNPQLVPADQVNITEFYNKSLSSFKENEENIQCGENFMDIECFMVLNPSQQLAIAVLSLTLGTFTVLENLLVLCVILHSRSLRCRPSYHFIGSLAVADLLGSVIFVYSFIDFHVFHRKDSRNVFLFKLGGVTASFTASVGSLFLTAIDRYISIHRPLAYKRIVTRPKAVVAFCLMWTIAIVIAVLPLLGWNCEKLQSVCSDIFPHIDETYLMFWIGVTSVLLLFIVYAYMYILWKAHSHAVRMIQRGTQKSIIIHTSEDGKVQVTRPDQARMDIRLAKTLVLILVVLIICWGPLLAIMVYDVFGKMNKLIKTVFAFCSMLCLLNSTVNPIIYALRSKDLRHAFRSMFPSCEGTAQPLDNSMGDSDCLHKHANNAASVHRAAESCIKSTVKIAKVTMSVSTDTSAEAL
T6 sequence (P34972 whole entry): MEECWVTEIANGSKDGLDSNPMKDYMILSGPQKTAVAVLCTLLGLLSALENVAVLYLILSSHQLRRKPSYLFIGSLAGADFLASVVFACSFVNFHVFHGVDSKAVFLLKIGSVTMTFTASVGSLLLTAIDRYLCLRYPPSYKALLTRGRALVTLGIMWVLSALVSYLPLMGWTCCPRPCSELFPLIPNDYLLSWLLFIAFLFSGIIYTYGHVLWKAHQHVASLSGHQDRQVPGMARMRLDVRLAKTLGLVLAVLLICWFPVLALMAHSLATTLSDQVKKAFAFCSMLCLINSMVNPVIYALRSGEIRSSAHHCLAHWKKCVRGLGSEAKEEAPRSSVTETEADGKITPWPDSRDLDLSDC
T5 sequence (Q9HC97 whole entry): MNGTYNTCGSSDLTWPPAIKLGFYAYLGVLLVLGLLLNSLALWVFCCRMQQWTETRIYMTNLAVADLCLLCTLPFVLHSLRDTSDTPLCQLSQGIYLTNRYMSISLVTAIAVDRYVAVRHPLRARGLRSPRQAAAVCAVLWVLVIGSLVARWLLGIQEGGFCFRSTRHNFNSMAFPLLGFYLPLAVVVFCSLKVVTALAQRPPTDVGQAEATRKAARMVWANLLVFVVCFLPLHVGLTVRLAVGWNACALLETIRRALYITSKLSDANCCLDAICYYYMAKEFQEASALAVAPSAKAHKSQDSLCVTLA
Chain of Dual specificity protein phosphatase 3 (P51452 whole entry): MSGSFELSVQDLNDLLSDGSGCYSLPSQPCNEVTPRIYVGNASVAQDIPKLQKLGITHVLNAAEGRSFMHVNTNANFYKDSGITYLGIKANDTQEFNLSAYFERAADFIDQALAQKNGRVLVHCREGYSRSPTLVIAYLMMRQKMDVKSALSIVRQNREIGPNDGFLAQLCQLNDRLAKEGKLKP
Chain of Transitional endoplasmic reticulum ATPase (Homo sapiens, UniProt P55072) (P55072 whole entry): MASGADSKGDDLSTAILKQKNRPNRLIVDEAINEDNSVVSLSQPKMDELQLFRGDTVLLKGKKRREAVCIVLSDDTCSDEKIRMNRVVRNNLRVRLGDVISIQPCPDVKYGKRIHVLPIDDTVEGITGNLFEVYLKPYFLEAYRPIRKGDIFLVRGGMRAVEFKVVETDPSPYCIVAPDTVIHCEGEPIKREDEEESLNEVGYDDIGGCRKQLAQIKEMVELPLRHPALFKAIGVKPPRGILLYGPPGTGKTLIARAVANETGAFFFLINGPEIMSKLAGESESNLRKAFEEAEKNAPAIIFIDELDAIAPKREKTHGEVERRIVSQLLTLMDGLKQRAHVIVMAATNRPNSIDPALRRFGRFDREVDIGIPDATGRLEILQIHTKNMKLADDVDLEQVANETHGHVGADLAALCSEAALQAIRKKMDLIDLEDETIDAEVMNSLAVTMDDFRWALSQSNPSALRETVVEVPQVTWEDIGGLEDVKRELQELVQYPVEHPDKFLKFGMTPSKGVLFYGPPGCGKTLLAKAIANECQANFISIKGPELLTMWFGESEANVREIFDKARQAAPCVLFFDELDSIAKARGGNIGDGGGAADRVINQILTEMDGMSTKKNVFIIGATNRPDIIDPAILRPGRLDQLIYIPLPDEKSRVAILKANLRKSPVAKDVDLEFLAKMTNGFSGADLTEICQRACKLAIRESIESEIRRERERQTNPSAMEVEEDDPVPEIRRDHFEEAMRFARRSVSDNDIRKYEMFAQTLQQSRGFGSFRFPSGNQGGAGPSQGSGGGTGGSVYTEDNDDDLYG
Chain of Mucolipin-3 (Q8TDD5 whole entry): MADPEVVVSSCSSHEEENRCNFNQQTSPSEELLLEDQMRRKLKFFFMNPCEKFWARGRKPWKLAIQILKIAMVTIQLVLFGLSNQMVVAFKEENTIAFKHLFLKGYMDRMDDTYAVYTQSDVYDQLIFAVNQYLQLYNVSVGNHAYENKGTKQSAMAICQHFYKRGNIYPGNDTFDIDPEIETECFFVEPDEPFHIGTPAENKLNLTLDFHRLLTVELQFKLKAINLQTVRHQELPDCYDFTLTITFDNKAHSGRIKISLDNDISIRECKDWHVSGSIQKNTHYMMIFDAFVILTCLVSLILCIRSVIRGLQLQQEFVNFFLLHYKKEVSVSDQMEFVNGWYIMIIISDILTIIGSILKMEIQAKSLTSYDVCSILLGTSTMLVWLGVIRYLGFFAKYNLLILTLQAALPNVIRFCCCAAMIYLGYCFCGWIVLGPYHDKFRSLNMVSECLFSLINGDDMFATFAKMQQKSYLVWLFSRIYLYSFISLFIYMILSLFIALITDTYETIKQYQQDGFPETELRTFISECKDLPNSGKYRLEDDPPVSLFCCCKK
Chain of DNA damage-inducible transcript 3 protein (P35639 whole entry): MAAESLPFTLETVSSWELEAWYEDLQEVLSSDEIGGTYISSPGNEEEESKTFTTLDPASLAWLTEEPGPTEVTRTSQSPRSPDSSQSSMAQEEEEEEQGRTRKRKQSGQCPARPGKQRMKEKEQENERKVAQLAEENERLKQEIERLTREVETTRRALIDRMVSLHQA
Chain of Transitional endoplasmic reticulum ATPase (Homo sapiens, UniProt P55072, C522A) (P55072 2-806 C522A limits assumed): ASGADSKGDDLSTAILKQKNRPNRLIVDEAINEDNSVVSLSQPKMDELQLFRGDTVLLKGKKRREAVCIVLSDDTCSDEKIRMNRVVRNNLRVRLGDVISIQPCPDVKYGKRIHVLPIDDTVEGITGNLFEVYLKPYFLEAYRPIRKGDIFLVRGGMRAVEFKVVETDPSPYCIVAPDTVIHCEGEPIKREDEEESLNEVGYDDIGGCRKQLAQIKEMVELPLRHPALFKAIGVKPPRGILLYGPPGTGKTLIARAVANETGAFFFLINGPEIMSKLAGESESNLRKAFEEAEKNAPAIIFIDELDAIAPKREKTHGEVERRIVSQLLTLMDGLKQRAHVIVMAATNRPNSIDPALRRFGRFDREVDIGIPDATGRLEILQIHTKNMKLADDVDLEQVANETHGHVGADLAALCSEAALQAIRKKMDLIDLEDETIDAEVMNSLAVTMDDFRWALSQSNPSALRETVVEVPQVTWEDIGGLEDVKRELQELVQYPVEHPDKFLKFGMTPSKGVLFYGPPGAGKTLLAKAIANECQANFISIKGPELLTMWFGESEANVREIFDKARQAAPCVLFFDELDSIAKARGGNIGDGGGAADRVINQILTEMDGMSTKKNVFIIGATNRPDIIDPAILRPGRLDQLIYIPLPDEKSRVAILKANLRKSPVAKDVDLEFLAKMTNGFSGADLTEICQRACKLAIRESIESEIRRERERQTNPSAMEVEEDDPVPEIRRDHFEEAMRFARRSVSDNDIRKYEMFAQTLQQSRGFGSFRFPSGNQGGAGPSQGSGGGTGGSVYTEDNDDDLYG
Chain of Luciferin 4-monooxygenase (P08659 whole entry): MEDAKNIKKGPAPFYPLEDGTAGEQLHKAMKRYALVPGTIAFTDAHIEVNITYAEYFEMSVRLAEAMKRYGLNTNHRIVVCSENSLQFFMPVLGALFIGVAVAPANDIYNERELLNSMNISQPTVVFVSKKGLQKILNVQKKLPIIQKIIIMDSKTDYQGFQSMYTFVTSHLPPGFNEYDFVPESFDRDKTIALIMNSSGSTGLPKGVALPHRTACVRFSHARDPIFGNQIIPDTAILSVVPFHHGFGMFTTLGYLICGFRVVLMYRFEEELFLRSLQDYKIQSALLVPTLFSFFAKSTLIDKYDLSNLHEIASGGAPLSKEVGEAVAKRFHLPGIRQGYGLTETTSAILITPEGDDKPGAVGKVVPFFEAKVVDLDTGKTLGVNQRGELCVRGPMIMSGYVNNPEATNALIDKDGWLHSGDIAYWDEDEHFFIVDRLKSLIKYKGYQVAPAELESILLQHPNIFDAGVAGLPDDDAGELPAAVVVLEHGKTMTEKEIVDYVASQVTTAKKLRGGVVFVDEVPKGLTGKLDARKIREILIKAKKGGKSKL
Chain of Tyrosine-protein phosphatase non-receptor type 12 (Q05209 whole entry): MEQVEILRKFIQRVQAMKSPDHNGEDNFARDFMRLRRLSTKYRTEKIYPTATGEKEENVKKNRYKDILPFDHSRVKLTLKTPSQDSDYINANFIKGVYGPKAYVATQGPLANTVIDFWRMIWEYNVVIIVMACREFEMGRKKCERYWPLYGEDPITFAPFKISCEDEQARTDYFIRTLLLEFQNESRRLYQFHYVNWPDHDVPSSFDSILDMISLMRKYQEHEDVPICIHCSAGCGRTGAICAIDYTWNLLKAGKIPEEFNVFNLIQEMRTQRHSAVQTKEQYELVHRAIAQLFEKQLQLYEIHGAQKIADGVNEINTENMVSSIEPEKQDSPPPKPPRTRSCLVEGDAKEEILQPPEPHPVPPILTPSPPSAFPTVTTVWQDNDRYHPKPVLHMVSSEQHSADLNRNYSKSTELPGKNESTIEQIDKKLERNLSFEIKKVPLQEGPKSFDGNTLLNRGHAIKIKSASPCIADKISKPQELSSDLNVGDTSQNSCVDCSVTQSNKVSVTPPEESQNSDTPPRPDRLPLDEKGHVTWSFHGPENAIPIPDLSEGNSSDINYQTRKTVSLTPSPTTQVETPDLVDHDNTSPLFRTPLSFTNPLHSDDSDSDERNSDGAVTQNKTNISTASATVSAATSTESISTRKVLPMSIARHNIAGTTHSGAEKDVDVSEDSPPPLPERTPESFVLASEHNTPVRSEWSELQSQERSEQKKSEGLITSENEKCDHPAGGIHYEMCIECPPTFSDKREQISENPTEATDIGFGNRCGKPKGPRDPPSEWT

`CCOc1cc(/C=C2\SC(=O)N(CC(=O)Nc3ccc(C)cc3)C2=O)cc(Cl)c1OCC(=O)OC`: the IC50 is > 100 µM (inactive) in assay [1]; 17.9 µM (active) in [2]; > 100 µM (inactive) in assay [3]; 9.66 µM (active) in [4]; > 100 µM (inactive) in assay [5]; > 100 µM (inactive) in assay [6]. Besides, the IC50 in [7] was > 100 µM (inactive).
As to `COc1ccc(S(=O)(=O)N2CCOCC2)cc1NC(=O)c1ccc2c(c1)OCO2`, the IC50 (at Cannabinoid receptor 1 [8]; in assay [11]; on Cannabinoid receptor 2 [13]) was > 32 µM (inactive) throughout. Besides, the EC50 in assay [9] is 18 µM (inactive); in assay [10], > 32 µM (inactive); at Cannabinoid receptor 1 [12], > 32 µM (inactive); at Cannabinoid receptor 2 [14], > 32 µM (inactive).
On to `CC(C)(C)c1ccc(C(=O)NC(=S)NNC(=O)c2cccs2)cc1`, for which the EC50 at Mucolipin-3 is 0.292 µM (active); in assay [16], > 112 µM (not active); in assay [17], 24.5 µM (active); on Ion channel NompC it was 0.168 µM (active); in assay [18], 13.5 µM (active); in assay [20], 2.15 µM (active). Further, in [21], the EC50 was 1.5 µM (active). Moreover, in the assay with Vero [15], the IC50 was > 12.5 µM (active). Moreover, the cytotoxic concentration (CC50) in the assay with Vero [19] is 17.4 µM (active).
Consider `Cc1cc(Nc2ccccc2)nc(-c2ccccc2O)n1`, for which the “Absolute IC50 (XBP1)” value at X-box-binding protein 1 was less than 10 µM. Moreover, the 50% inhibitory concentration (IC50) in assay [22] and in assay [23] was > 50 µM (not active) each time. The “Absolute IC50 (CHOP)” value in assay [24] is 10 µM. In addition, the concentration at half-maximal activity (AC50) in [25] is 5.64 µM (active).
